In one experiment the test system is dairy cows. The note with it: all administration rates evaluated; cited from earlier work.
Experiment [1] has as its system Ruminal VFA (rumen fluid). The experiment can be described thus: In vitro rumen fluid fermentation test, ratio of VFA in treated to control flasks. The arrangement: species or system steer. The note with it: 16 hours at 38° C. An excerpt:
As previously noted, a preferred method for improving milk production in lactating ruminants comprises the oral administration of the virginiamycin type antibiotic A-2315. […] Rumen fluid is obtained from a steer with a surgically-installed fistula opening into the rumen. The steer is maintained on a high-grain ration, the composition of which follows: A sample of rumen fluid is strained through four layers of cheesecloth, and the filtrate is collected. The particulate matter retained by the cheesecloth is resuspended in enough physiological buffer to return it to the original volume of the rumen fluid, and this suspension is strained again. The buffer used has the following composition: The two filtrates are combined and allowed to stand until particulate matter separates to the top. The clear layer is separated, diluted with the same buffer (1:1) and then adjusted to pH 7.0. The diluted rumen fluid (10 ml.) is placed in a 25-ml flask with 40 mg. of the above-described feed, an additional 5 mg. of soybean protein, and the test compound. Four replicate flasks are used per treatment. Two sets of four control flasks each are also employed. A zero-time control and an incubated 16-hour control are used. All test flasks are incubated for 16 hours at 38° C. After incubation, 25 percent metaphosphoric acid (2 ml.) is added to each flask. The samples are allowed to settle, and the supernatant is analyzed by gas chromatography for propionate, acetate, and butyrate compounds. Test compound results are statistically compared with control results.

In the next experiment the test system is Ruminal VFA. The experiment is described as follows: In vivo ruminal VFA test in fistulated non-lactating lambs. Also noted: species or system sheep. The note with it: 15 g/ton in feed. How it is done:
Two groups of fistulated lambs are allowed slightly more than their normal feed ration for 17 days. Test compound is administered to one group in the feed on a g/ton basis.
The rumen fluids of both groups of animals are sampled on days 3, 7, 10, 14 and 17 of the treatment period.
The fermentation of the ruminal samples is halted by addition of meta-phosphoric acid. Each sample is diluted, centrifuged at 2000×gravity for 10 minutes; the supernatants are analyzed for volatile fatty acids via the gas chromatographic method of E. S. Erwin, G. J. Marco and E. M. Emery in J. Dairy Sci., 44, 1768 […]. Molar percentages of ruminal volatile fatty acids are calculated, and the effect is measured as a comparison of the molar percentages of propionic acid and butyric acid in treated animals to those in contemporary controls. The results of the test are presented below in Tables II and III.

[2] abbreviates: 0.1 mcg per ml diluted rumen fluid.
[3] abbreviates: 0.3 mcg per ml diluted rumen fluid.
Where [4] appears, read: 1.0 mcg per ml diluted rumen fluid.
Setting [5] is: molar percentage of ruminal VFA, 17 days.

Regarding `CC[C@@]1([C@@H]2O[C@@H]([C@H]3O[C@@](O)(CO)[C@H](C)C[C@@H]3C)C[C@@H]2C)CC[C@H]([C@]2(C)CC[C@]3(C[C@H](O)[C@@H](C)[C@@H]([C@@H](C)[C@@H](OC)[C@H](C)C(=O)O)O3)O2)O1` [Monensin], the fat-corrected-milk production result in the experiment with dairy cows is “no different from that of non-treated control animals”.
Take `CC1=C\[C@@H](O)C[C@@H](O)Cc2nc(co2)C(=O)N[C@H](C)C(=O)O[C@H](C(C)C)[C@H](C)/C=C/C(=O)NC\C=C\1` [A-2315 Factor A]: in experiment [1] (setting [2]), the “Acetate, ratio of VFA concentration in treated flasks to control flasks” value (“Acetate, ratio of VFA concentration” below) is 0.97; the “Butyrate, ratio of VFA concentration in treated flasks to control flasks” value (shortened to “Butyrate, ratio of VFA concentration”) is 1.01; the “Propionate, ratio of VFA concentration in treated flasks to control flasks” value (from here on “Propionate, ratio of VFA concentration”) is given as 1.07; the “Total VFA, ratio of concentration in treated flasks to control flasks” value (shortened to “Total VFA, ratio of concentration”) is 1.04. Also, in experiment [1] (setting [3]), the “Acetate, ratio of VFA concentration” value was 0.95; the “Butyrate, ratio of VFA concentration” value is given as 1.00; the “Propionate, ratio of VFA concentration” value is recorded as 1.08; the “Total VFA, ratio of concentration” value is 1.07. Besides, in experiment [1] (setting [4]), the “Acetate, ratio of VFA concentration” value was 0.95; the “Butyrate, ratio of VFA concentration” value is recorded as 1.04; the “Propionate, ratio of VFA concentration” value is reported as 1.15; the “Total VFA, ratio of concentration” value came out at 1.05. Further, in the experiment on Ruminal VFA, the “Butyric acid, Increase Relative to Control” value came out at 21.6% and the “Propionic acid, Increase Relative to Control” value worked out at 18.2%. For the same compound, in the experiment on Ruminal VFA (control 11.1), the “Butyric acid, Change from Control” value is 2.4. The “Propionic acid, Change from Control” value in the experiment on Ruminal VFA (control 26.2) stood at 4.8. For the same compound, in the experiment with Ruminal VFA (setting [5]), the “% Butyric Acid Conc.” value is 13.5% and the “% Propionic Acid Conc.” value was found to be 31.0%.

(Values after patent US4336250A, “Lactation improvement method” (Eli Lilly and Company, priority 1981, dated 1982).)
